According to the NIST ThermoML archive (doi:10.1016/j.jct.2019.03.007):

Assay: molar heat capacity at constant pressure
Conditions: 101.33 kPa, Crystal 1, DSC

O=[N+]([O-])[O-].O=[N+]([O-])[O-].[Ca+2] [calcium nitrate]
Conditions	molar heat capacity at constant pressure [J/K/mol]
418 K	161.73
418.18 K	170.76
418.78 K	162.59
419 K	162.11
419.18 K	170.93
419.78 K	162.75
420 K	162.15
420.18 K	171.07
420.78 K	162.91
421 K	162.33
421.18 K	171.17
421.78 K	163.06
422 K	162.71
422.18 K	171.32
422.78 K	163.22
423 K	162.96
423.18 K	171.45
423.78 K	163.38
424 K	163.14
424.18 K	171.55
424.78 K	163.54
425 K	163.33
425.18 K	171.73
425.78 K	163.69
426 K	163.37
426.18 K	171.87
426.78 K	163.85
427 K	163.76
427.18 K	172.05
427.78 K	164.01
428 K	163.77
428.18 K	172.26
428.78 K	164.17
429 K	163.7
429.18 K	172.5
429.78 K	164.33
430 K	163.8
430.18 K	172.74
430.78 K	164.49
431 K	163.76
431.18 K	173.01
431.78 K	164.65
432 K	163.92
432.18 K	173.21
432.78 K	164.81
433 K	164.38
433.18 K	173.43
433.78 K	164.96
434 K	164.69
434.18 K	173.63
434.78 K	165.13
435 K	164.65
435.18 K	173.82
435.78 K	165.29
436 K	164.7
436.18 K	174.04
436.78 K	165.45
437 K	164.8
437.18 K	174.21
437.78 K	165.61
438 K	165.07
438.18 K	174.35
438.78 K	165.77
439 K	165.44
439.18 K	174.62
439.78 K	165.93
440 K	165.84
440.18 K	174.82
440.78 K	166.09
441 K	165.74
441.18 K	175.02
441.78 K	166.26
442 K	165.94
442.18 K	175.16
442.78 K	166.42
443 K	166.4
443.18 K	175.33
443.78 K	166.58
444 K	166.4
444.18 K	175.47
444.78 K	166.75
445 K	166.55
445.18 K	175.65
445.78 K	166.92
446 K	166.46
446.18 K	175.77
446.78 K	167.08
447 K	166.39
447.18 K	175.94
447.78 K	167.25
448 K	166.47
448.18 K	176.08
448.78 K	167.41
449 K	166.51
449.18 K	176.2
449.78 K	167.57
450 K	166.69
450.18 K	176.36
450.78 K	167.73
451 K	166.81
451.18 K	176.52
451.78 K	167.88
452 K	166.99
452.18 K	176.72
452.78 K	168.04
453 K	167.12
453.18 K	176.94
453.78 K	168.19
454 K	167.19
454.18 K	177.19
454.78 K	168.34
455 K	167.39
455.18 K	177.36
455.78 K	168.49
456 K	167.61
456.18 K	177.51
456.78 K	168.64
457 K	167.67
457.18 K	177.68
457.78 K	168.79
458 K	167.76
458.18 K	177.88
458.78 K	168.94
459 K	167.66
459.18 K	178.01
459.78 K	169.09
460 K	167.65
460.18 K	178.19
